Assay results as given in patent publication US10973831B2, “Fluoropiperidine compounds as pure 5-HT 6 receptor antagonists” (SUVEN LIFE SCIENCES LIMITED, priority 2017, dated 2021).

Experiments:
Female rats = assay: Non-clinical toxicology, repeated dose toxicity study in rat; format: in vivo; details: repeated dose toxicity
Experimental: (§1) The safety of the example 1 of instant invention and comparator example of U.S. Pat. No. 7,378,415 were evaluated in repeated dose toxicity study in rat.
(§2) Female rats were used as experimental animals for evaluating the toxicity profile of example 1 of instant invention and the comparator example of U.S. Pat. No. 7,378,415.
(§3) During the study, female rats were dosed at incremental doses for minimum of 4 days. Toxicity assessment was done on the mortality, clinical observation, change in the body weight, feed consumption, clinical and anatomical pathology. Systemic exposures were also estimated for both of the compounds. All quantitative variables are compared with control group using one-way ANOVA followed by Dunnet's post-hoc test on GraphPad Prism Software version 4, 2003.

[1] = as above; format: in vivo; details: rat, female rats
Experimental: as §1, §2, §3

[2] = molecular target: T1, recombinant human 5-HT6 receptor (Homo sapiens, UniProt P50406); assay: Determination of Kb for 5-HT6 receptor (CHO cells, pCRE-Luc reporter, cAMP); format: cell-based; details: 10 μM serotonin, luciferase reporter
T1 construct: expressed in transfected cells
Experimental: Determination of Kb for 5-HT6 Receptor: A stable CHO cell line expressing recombinant human 5-HT6 receptor and pCRE-Luc reporter system was used for cell based assay. The assay offers a non-radioactive based approach to determine binding of a compound to GPCRs. In this specific assay, the level of intracellular cyclic AMP which is modulated by activation or inhibition of the receptor is measured. The recombinant cells harbor luciferase reporter gene under the control of cAMP response element. The above cells were plated in 96 well clear bottom white plates at a density of 5×10^4 cells/well using Hams F12 medium containing 10% fetal bovine serum (FBS) and incubated overnight at 37° C. and 5% CO2 followed by serum starvation for 18-20 hrs. Increasing concentrations of test compounds were added along with 10 μM serotonin in Opti-MEM to the cells. The incubation was continued at 37° C. in CO2 incubator for 4 hours. After 4 hours cells were lysed using lysis buffer and luciferase assay buffer was added to each well and counts per second were recorded using luminescence counter. From counts per second (CPS) obtained, percent binding was calculated for each well by taking 10 μM 5-HT as 100% bound and vehicle as 0% bound. The percent bound values were plotted against compound concentrations and data were analyzed using a nonlinear, iterative curve-fitting computer program of Graph pad Prism 4 software. The Kb values were calculated using concentration of the agonist used in the assay.

[3] = Rodent pharmacokinetic study; format: in vivo, male Wistar rats; details: male, Wistar, plasma, rat
Experimental: Male Wistar rats (260±50 grams) were used as experimental animals. Animals were housed individually in polypropylene cage. Two days prior to study, male Wistar rats were anesthetized with isoflurane for surgical placement of jugular vein catheter. Rats were randomly divided for oral (3 mg/kg) and intravenous (1 mg/kg) dosing (n=3/group) and fasted overnight before oral dosing (p.o.). However, rats allocated to intravenous dosing food and water was provided ad libitum.
At pre-determined point, blood was collected through jugular vein and replenished with an equivalent volume of normal saline. Collected blood was transferred into a labeled eppendorf tube containing 10 μL, of heparin as an anticoagulant. Typically blood samples were collected at following time points: 0.08, 0.25, 0.5, 1, 2, 4, 6, 8, and 24 hours post dose. Blood was centrifuged at 4000 rpm for 10 minutes. Plasma was separated and stored frozen at −80° C. until analysis. The concentrations of the test compounds were quantified in plasma by qualified LC-MS/MS method using suitable extraction technique. The test compounds were quantified in the calibration range around 1-1000 ng/mL in plasma. Study samples were analyzed using calibration samples in the batch and quality control samples spread across the batch.
Pharmacokinetic parameters Cmax, AUC1, T1/2, Clearance and Bioavailability (F) were calculated by non-compartmental model using standard non-compartmental model by using Phoenix WinNonlin 6.2 or 6.4 version Software package.

T1 sequence (P50406 whole entry): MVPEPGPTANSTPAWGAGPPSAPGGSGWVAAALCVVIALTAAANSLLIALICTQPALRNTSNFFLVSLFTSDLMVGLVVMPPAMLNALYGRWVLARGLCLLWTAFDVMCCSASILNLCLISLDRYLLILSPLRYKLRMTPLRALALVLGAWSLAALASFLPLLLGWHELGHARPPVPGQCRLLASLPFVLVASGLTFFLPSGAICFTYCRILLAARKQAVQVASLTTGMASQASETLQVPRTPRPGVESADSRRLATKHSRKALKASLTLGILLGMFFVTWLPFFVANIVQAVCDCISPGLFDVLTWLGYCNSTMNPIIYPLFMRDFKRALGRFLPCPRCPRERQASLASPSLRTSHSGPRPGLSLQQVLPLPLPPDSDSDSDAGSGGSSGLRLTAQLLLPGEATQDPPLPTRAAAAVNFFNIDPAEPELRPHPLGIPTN

Cl.O=S(=O)(c1ccccc1)c1ccc2c(c1)OCCN2C1CCNCC1F (single isomer, unassigned; peak iii) [Example 1, 7-Phenylsulfonyl-4-(3-fluoropiperidin-4-yl)-3,4-dihydro-2H-benzo[1,4]oxazine hydrochloride (Peak III)]
Findings (mortality) (Female rats): No death up
Findings (mortality) (Female rats; listed as example 1): no deaths were observed at doses as high as 300 mg/kg
NOAEL at 4 days ([1]; in vivo, 4-Day repeat tox): 300 mg/kg
MTD ([1]; in vivo, repeated incremental doses, read-out: Maximum Tolerated Dose): ≥ 300 mg/kg
AUC ([1]; plasma, repeated dose toxicity study, read-out: AUC (systemic exposure in toxicity study)): 38100 ng·h/mL
Cmax ([1]; plasma, repeated dose toxicity study, read-out: Cmax (systemic exposure in toxicity study)): 2420 ng/mL
Kb [2]: 0.04 nM
AUC(0-t) ([3]; intravenous (bolus), 1 mg/kg): 412 ± 37 ng·h/mL
clearance ([3]; intravenous (bolus), 1 mg/kg): 40 ± 3 mL/min/kg
half-life ([3]; intravenous (bolus), 1 mg/kg): 4.5 ± 0.1 h
bioavailability ([3]; oral (gavage) 3 mg/kg vs intravenous 1 mg/kg, read-out: F (Bioavailability)): 81 ± 1%
AUC(0-t) ([3]; oral (gavage), 3 mg/kg): 1000 ± 15 ng·h/mL
Cmax ([3]; oral (gavage), 3 mg/kg): 84 ± 14 ng/mL
half-life ([3]; oral (gavage), 3 mg/kg): 5.6 ± 0.9 h
